Measured values published in article PMC6411751, “Use of machine learning to identify novel, behaviorally active antagonists of the insect odorant receptor co-receptor (Orco) subunit” (Scientific Reports, 2019).
Structures can show the parent of a compound that is named as a salt.

What was measured:
Assay type in all cases: cell-based
Dmel\Or35a + Dmel\Orco = biological target: T1, Dmel\Or35a + Dmel\Orco (Drosophila melanogaster, UniProt Q9VNB5); assay: Inhibition of heteromeric OR in oocytes (hexanol or OLC12 activation); conditions: for inhibition of odorant activation: 100 µM antagonist, 1 µM hexanol; for antagonism of OLC12 (Orco agonist) activation of heteromeric OR: 100 or 300 µM antagonist, 10 µM OLC12
T1 construct: expressed in transfected cells; host or cells: Xenopus laevis oocytes
T1 sequence (Q9VNB5 1-486): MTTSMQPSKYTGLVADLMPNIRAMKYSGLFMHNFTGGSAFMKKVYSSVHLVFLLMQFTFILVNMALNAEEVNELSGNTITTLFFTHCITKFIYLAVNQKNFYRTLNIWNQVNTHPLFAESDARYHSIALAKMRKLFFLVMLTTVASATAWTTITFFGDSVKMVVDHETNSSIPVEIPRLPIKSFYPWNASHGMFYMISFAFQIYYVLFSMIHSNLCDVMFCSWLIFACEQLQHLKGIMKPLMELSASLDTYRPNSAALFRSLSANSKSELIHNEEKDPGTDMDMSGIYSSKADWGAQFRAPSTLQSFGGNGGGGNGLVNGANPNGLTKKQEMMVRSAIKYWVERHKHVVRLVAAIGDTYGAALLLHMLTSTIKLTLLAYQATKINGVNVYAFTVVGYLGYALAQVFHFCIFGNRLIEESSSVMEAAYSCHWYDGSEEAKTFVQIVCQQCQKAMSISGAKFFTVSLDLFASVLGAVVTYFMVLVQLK
T1 sequence (Q9V3Q2 1-409 partner): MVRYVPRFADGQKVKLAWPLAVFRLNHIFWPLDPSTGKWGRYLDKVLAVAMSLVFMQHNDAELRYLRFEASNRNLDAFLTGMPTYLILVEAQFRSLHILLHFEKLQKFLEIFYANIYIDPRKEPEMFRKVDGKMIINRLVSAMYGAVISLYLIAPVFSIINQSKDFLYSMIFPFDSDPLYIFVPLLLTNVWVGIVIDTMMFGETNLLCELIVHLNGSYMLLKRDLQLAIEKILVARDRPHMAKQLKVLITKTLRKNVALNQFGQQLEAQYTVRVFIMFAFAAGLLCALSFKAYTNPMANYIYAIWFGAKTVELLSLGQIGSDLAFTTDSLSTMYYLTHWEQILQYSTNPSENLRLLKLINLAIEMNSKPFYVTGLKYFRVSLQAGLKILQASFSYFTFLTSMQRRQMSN
Procedure: (§1) An automated parallel electrophysiology system (OpusExpress 6000 A, Molecular Devices) was used to record Orco agonist (OLC12) or odorant induced currents under two-electrode voltage clamp. Oocytes were perfused with ND96 (in mM: 96 NaCl, 2 KCl, 1 CaCl2, 1 MgCl2, 5 HEPES, pH 7.4). DMSO was used to prepare 1 M or 100 mM stock solutions of test compounds, which were then diluted in ND96 on the day of the experiment. Compounds were applied at a flow rate of 1.0 mL/min, with extensive washing in ND96 at 4.6 mL/min between applications. Micropipettes with resistances of 0.2–2.0 MΩ were filled with 3 M KCl. The holding potential was −70 mV. Current responses were filtered (4-pole, Bessel, low pass) at 20 Hz (−3 db) and sampled at 100 Hz. OpusXpress 1.1 software (Molecular Devices) was used to capture and store current responses.
(§2) To measure the ability of Orco antagonists to inhibit odorant activation, oocytes expressing heteromeric ORs (Orco + ORX) were exposed to a 30 sec application of odorant followed by a 20 min wash. Oocytes were then exposed to a 90 sec application of Orco antagonist, immediately followed by a 30 sec co-application of Orco antagonist and odorant. The current response to odorant in the presence of Orco antagonist was compared to the preceding response to odorant alone and represented as a percentage. This value was then normalized to the value obtained when the assay was run in the absence of antagonist (sham).
(§3) Figure S3. Effects of Orco antagonists on heteromeric ORs. […]
heteromeric complexes of odorant specificity subunits and Orco. The Orco antagonists tested were 3-isopropyl-6-methyl-catechol (3 I6 MC), a potent compound from the input training set, and two compounds id e ntified in Fig u re 4 an d Ta b le 1 : 2-tert-butyl-6-methylphenol (B MP ) and linalyl formate (LF) . These compounds were tested for antagonist activity against odorant activation of three ORs from Anopheles gambiae (Agam\Or28 + Agam\Orco, Agam\Or39 + A ga m\Orco, Agam\Or65 + A ga m\Orco), o ne O R fro m Culex quinquefasciatus, the southern house mosquito (Cq u i\Or21 + Cqui\Orco) an d on e O R f ro m Drosophila melanogaster (Dme l\Or35a + Dmel\Orco). Each OR was activated by its cognate odorant agonist applied at an approximate EC50 concentration. […]
SEM (n = 4). […] Statistical significance of the data in each panel was assessed by one-way analysis of variance followed by Dunnett’s multiple comparison test using the pre-normalized values for each antagonist compared to the values obtained in the sham recordings (*, p < 0 .0 5; **, p < 0. 01; ***, p < 0 . 00 1 ).

Agam\Or39 + Agam\Orco = biological target: T2, Agam\Or39 + Agam\Orco (Anopheles gambiae, UniProt Q7QCC7); assay: Inhibition of heteromeric OR in oocytes (6-methyl-5-hepten-2-one activation); conditions: 100 µM antagonist; 10 µM 6-methyl-5-hepten-2-one
T2 construct: expressed in transfected cells; host or cells: Xenopus laevis oocytes
T2 sequence (Q7QCC7 1-478): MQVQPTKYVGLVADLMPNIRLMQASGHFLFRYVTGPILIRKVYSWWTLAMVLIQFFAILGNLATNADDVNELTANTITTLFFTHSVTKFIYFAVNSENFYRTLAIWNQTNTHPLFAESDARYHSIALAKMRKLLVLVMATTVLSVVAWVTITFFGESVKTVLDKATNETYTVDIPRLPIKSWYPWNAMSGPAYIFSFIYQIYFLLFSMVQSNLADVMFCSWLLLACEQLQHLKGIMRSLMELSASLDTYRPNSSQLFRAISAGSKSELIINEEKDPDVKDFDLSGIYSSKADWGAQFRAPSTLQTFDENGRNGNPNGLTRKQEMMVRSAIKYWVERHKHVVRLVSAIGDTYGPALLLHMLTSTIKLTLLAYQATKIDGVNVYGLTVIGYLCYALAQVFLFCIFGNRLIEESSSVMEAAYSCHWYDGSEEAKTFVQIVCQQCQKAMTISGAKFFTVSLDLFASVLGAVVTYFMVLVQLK
Procedure: as §1, §2, §3
heteromeric complexes of odorant specificity subunits and Orco. The Orco antagonists tested were 3-isopropyl-6-methyl-catechol (3 I6 MC), a potent compound from the input training set, and two compounds id e ntified in Fig u re 4 an d Ta b le 1 : 2-tert-butyl-6-methylphenol (B MP ) and linalyl formate (LF) . […]
Statistical significance of the data in each panel was assessed by one-way analysis of variance followed by Dunnett’s […]

Agam\Or28 + Agam\Orco = biological target: T3, Agam\Or28 + Agam\Orco (Anopheles gambiae, UniProt Q7QCC7); assay: Inhibition of heteromeric OR in oocytes (acetophenone activation); conditions: for inhibition of odorant activation: 100 µM antagonist, 40 µM acetophenone
T3 construct: expressed in transfected cells; host or cells: Xenopus laevis oocytes
T3 sequence (Q7QCC7 1-478): T2 sequence (Q7QCC7 1-478)
Procedure: as §1

SMILES | inhibition of odorant activation (Dmel\Or35a + Dmel\Orco) | antagonism of OLC12 (Orco agonist) activation of heteromeric OR (Dmel\Or35a + Dmel\Orco) | inhibition of odorant activation (Agam\Or39 + Agam\Orco) | IC50 (Agam\Or28 + Agam\Orco; 100 µM acetophenone, n = 4-8, read-out: IC50 for inhibition of Agam\Or28 + Agam\Orco activation by 100 µM ACE) [µM] | inhibition of odorant activation (Agam\Or28 + Agam\Orco) | mechanism of inhibition of odorant responses (Agam\Or28 + Agam\Orco; 10 vs 100 µM acetophenone fails to shift inhibition curve)
Cc1cccc(C(C)(C)C)c1O [BMP, 2-tert-butyl-6-methylphenol] | able to inhibit odorant activation | able to antagonize OLC12 | able to inhibit odorant activation | 53 ± 9 | able to inhibit odorant activation | non-competitive
Cc1ccc(C(C)C)c(O)c1O [3I6MC, 3-isopropyl-6-methyl catechol] | could inhibit odorant activation | could antagonize OLC12 | could inhibit odorant activation | – | could inhibit odorant activation | –
C=CC(C)(CCC=C(C)C)OC=O (centres unmarked) [LF, linalyl formate] | able to inhibit odorant activation | able to antagonize OLC12 | able to inhibit odorant activation | – | able to inhibit odorant activation | –
